Measured values reported in patent US7399608B2, “Microbial detection and quantification” (Kimberly-Clark Worldwide, Inc., priority 2003, dated 2008).

Columns and labels:
[1] = tested on: bacteria in aged chicken juice; assay: N-docosyl-merocyanine dye coated onto cotton fabric, aged chicken juice; settings: 47 mg in 10 g dimethylformamide, supernatant on woven cotton
[2] = tested on: bacteria in aged chicken juice; assay: Dye solution dropped onto aged chicken juice on SCOTT paper towel (comparative examples); settings: comparative dye solution dropped onto aged chicken juice on SCOTT paper towel
[3] = tested on: microbes in aged female human urine; assay: N-methylmerocyanine coated onto kitchen paper towel, aged urine
[4] = tested on: budgerigar feces suspension; assay: N-methyl merocyanine coated paper towel, pet bird feces suspension; settings: Atlanta city domestic tap water
Protocol: Budgerigar feces was collected from a caged pet budgie, and shaken in approximately 10 ml of Atlanta city domestic tap water. N-methyl merocyanine dye of structure 33 above was synthesized as described above.

[5] = Bleach indicator test; format: physicochemical; settings: mixture with Reichardt's dye coated on SCOTT towel

SMILES | color change on aged chicken juice [2] | other results
CCCCCCCCCCCCCCCCCCCCCC[n+]1ccc(C=Cc2ccc(O)cc2)cc1.[Br-] |  | color change of orange-yellow dye spots on cotton [1]: color change to very pale yellow
O=C1/C(=C2\Nc3ccc(S(=O)(=O)[O-])cc3C2=O)Nc2ccc(S(=O)(=O)[O-])cc21.[Na+].[Na+] [Cl Acid Blue 74, Indigo Carmine] | No color changes were observed | 
Cc1ccc(Nc2ccc(Nc3ccc(C)cc3S(=O)(=O)[O-])c3c2C(=O)c2ccccc2C3=O)c(S(=O)(=O)[O-])c1.[Na+].[Na+] [Cl Acid Green 25] | No color changes were observed | 
Cc1ccc(Nc2ccc(Nc3ccc(C)cc3S(=O)(=O)[O-])c3c2C(=O)c2c(O)ccc(O)c2C3=O)c(S(=O)(=O)[O-])c1.[Na+].[Na+] [Cl Acid Green 41] | No color changes were observed | 
CC(=O)Nc1ccc(/N=N/c2c(N)ccc3cc(S(=O)(=O)[O-])cc(O)c23)c(S(=O)(=O)[O-])c1.[Na+].[Na+] [Cl Acid Red 37] | No color changes were observed | 
CCN(CC)c1ccc2c(-c3ccc(S(=O)(=O)O)cc3S(=O)(=O)[O-])c3ccc(=[N+](CC)CC)cc-3oc2c1 [Cl Acid Red 52, sulforhodamine B] | No color changes were observed | 
O=C([O-])C1=NN(c2ccc(S(=O)(=O)[O-])cc2)C(=O)C1N=Nc1ccc(S(=O)(=O)[O-])cc1.[Na+].[Na+].[Na+] (centres unmarked) [Cl Acid Yellow 23, tartrazine] | No color changes were observed | 
COc1cc(/C=C/c2cc[n+](C)cc2)ccc1[O-] [N-methyl merocyanine dye] |  | color change with aged urine filtered through 0.2 micron filter ([3]; urine stored 24 hours at 37° C.): did not cause a color change; color change with aged urine filtered through 0.2 micron filter ([3]; urine stored 8 days at room temperature): did not cause a color change; color of coated towel with tap water control [4]: the area remained orange
Cc1cc(-c2cc(C)c(N)c(C)c2)cc(C)c1N [TMB, reference compound] |  | response of TMB to dilute bleach [5]: turning orange/yellow color
